Reference: US20170290774A1, “NEUROKININ-1 RECEPTOR ANTAGONIST COMPOSITION FOR TREATMENT OF DISEASES AND CONDITIONS OF THE RESPIRATORY TRACT” (PLUS VITECH, S.L., priority 2014, published 2017)

Test: Tissue concentration of aprepitant by HPLC after oral or inhaled administration to rabbits
Type: in vivo, New Zealand albino rabbits
Conditions: rabbit
Method: Herein, New Zealand albino rabbits (New Zealand White Rabbits) with an initial average weight of approximately 3 kg were used. The rabbits were fed ad libitum and were monitored daily to check that signs of toxicity had not appeared. […] This mixture was administered as an aerosol to the airways of a group of 3 of said rabbits (Group 5) in a dose of 0.05 mg/kg body weight per day, to another group of three rabbits (Group 6) in a dose of 0.1 mg/kg body weight per day, to another group of three rabbits (group 7) in a dose of 0.2 mg/kg body weight per day and to another group of three rabbits (Group 8) in a dose of 0.4 mg/kg body weight per day. […] After seven days of treatment all animals were euthanized and necropsied. […] Samples were taken at the peripheral level of the lung parenchyma, just below the pleural surface. Tissue samples were also taken from the nasal cavity, pharynx, larynx and bronchi. […] The average is the arithmetic average calculated for each row or column of each table. The SD is the standard deviation, calculated for each row or column of each table.

- concentration at 7 days (New Zealand White (albino), lung, right inferior lobe, po, 100 mg/kg/day, Lung concentration of aprepitant LIPD (right inferior lobe), Group 4, oral 100 mg/kg per day, seven days, individual cases): 4900 ng/g
- concentration at 7 days (New Zealand White (albino), lung, right inferior lobe, po, 100 mg/kg/day, Lung concentration of aprepitant LIPD, Average ± SD of cases, Group 4, oral 100 mg/kg per day, seven days): 5600 ng/g
- concentration at 7 days (New Zealand White (albino), lung, right middle lobe, inhaled, 0.05 mg/kg/day, Lung concentration of aprepitant LMPD (right middle lobe), Group 5, inhalation (aerosol, olive oil) 0.05 mg/kg per day, seven days, individual cases): 1500 ng/g
- concentration at 7 days (New Zealand White (albino), lung, right middle lobe, inhaled, 0.05 mg/kg/day, Lung concentration of aprepitant LMPD, Average ± SD of cases, Group 5, inhalation (aerosol, olive oil) 0.05 mg/kg per day, seven days): 1500 ng/g
- concentration at 7 days (New Zealand White (albino), lung, right middle lobe, inhaled, 0.1 mg/kg/day, Lung concentration of aprepitant LMPD (right middle lobe), Group 6, inhalation (aerosol, olive oil) 0.1 mg/kg per day, seven days, individual cases): 2900 ng/g
- concentration at 7 days (New Zealand White (albino), lung, right middle lobe, inhaled, 0.1 mg/kg/day, Lung concentration of aprepitant LMPD, Average ± SD of cases, Group 6, inhalation (aerosol, olive oil) 0.1 mg/kg per day, seven days): 2900 ng/g
- concentration at 7 days (New Zealand White (albino), lung, right middle lobe, inhaled, 0.2 mg/kg/day, Lung concentration of aprepitant LMPD (right middle lobe), Group 7, inhalation (aerosol, olive oil) 0.2 mg/kg per day, seven days, individual cases): 6000 ng/g
- concentration at 7 days (New Zealand White (albino), lung, right middle lobe, inhaled, 0.2 mg/kg/day, Lung concentration of aprepitant LMPD, Average ± SD of cases, Group 7, inhalation (aerosol, olive oil) 0.2 mg/kg per day, seven days): 6030 ng/g
- concentration at 7 days (New Zealand White (albino), lung, right middle lobe, po, 100 mg/kg/day, Lung concentration of aprepitant LMPD, Average ± SD of cases, Group 4, oral 100 mg/kg per day, seven days): 5400 ng/g
- concentration at 7 days (New Zealand White (albino), lung, right superior lobe, inhaled, 0.05 mg/kg/day, Lung concentration of aprepitant LSPD (right superior lobe), Group 5, inhalation (aerosol, olive oil) 0.05 mg/kg per day, seven days, individual cases): 1400 ng/g
- concentration at 7 days (New Zealand White (albino), lung, right superior lobe, inhaled, 0.05 mg/kg/day, Lung concentration of aprepitant LSPD, Average ± SD of cases, Group 5, inhalation (aerosol, olive oil) 0.05 mg/kg per day, seven days): 1400 ng/g
- concentration at 7 days (New Zealand White (albino), lung, right superior lobe, inhaled, 0.1 mg/kg/day, Lung concentration of aprepitant LSPD (right superior lobe), Group 6, inhalation (aerosol, olive oil) 0.1 mg/kg per day, seven days, individual cases): 2900 ng/g
- concentration at 7 days (New Zealand White (albino), lung, right superior lobe, inhaled, 0.1 mg/kg/day, Lung concentration of aprepitant LSPD, Average ± SD of cases, Group 6, inhalation (aerosol, olive oil) 0.1 mg/kg per day, seven days): 2800 ng/g
- concentration at 7 days (New Zealand White (albino), lung, right superior lobe, inhaled, 0.2 mg/kg/day, Lung concentration of aprepitant LSPD (right superior lobe), Group 7, inhalation (aerosol, olive oil) 0.2 mg/kg per day, seven days, individual cases): 6100 ng/g
- concentration at 7 days (New Zealand White (albino), lung, right superior lobe, inhaled, 0.2 mg/kg/day, Lung concentration of aprepitant LSPD, Average ± SD of cases, Group 7, inhalation (aerosol, olive oil) 0.2 mg/kg per day, seven days): 6000 ng/g
- concentration at 7 days (New Zealand White (albino), lung, right superior lobe, po, 100 mg/kg/day, Lung concentration of aprepitant LSPD, Average ± SD of cases, Group 4, oral 100 mg/kg per day, seven days): 4700 ng/g
- concentration at 7 days (New Zealand White, in vivo, 0.4 mg/kg/day, Lung concentration of aprepitant, Average ± SD of the five lobes per case): 9900 ng/g
- concentration at 7 days (New Zealand White, in vivo, po, 10 mg/kg/day, Lung concentration of aprepitant, Average ± SD of the five lobes per case): 960 ng/g
- concentration at 7 days (New Zealand White, in vivo, po, 40 mg/kg/day, Lung concentration of aprepitant, Average ± SD of the five lobes per case): 4200 ng/g
- concentration at 7 days (New Zealand White, in vivo, po, 80 mg/kg/day, Lung concentration of aprepitant, Average ± SD of the five lobes per case): 4400 ng/g
- concentration at 7 days (New Zealand White, lung, left inferior lobe, inhaled, 0.2 mg/kg/day, Lung concentration of aprepitant LIPI, Average ± SD of cases, Group 7, inhalation (aerosol, olive oil) 0.2 mg/kg per day, seven days): 5900 ng/g
- concentration at 7 days (New Zealand White, lung, left inferior lobe, inhaled, 0.4 mg/kg/day, Lung concentration of aprepitant LIPI (left inferior lobe), Group 8, inhalation (aerosol, olive oil) 0.4 mg/kg per day, seven days, individual cases): 10000 ng/g
- concentration at 7 days (New Zealand White, lung, left inferior lobe, inhaled, 0.4 mg/kg/day, Lung concentration of aprepitant LIPI, Average ± SD of cases, Group 8, inhalation (aerosol, olive oil) 0.4 mg/kg per day, seven days): 10000 ng/g
- concentration at 7 days (New Zealand White, lung, left inferior lobe, po, 10 mg/kg/day, Lung concentration of aprepitant LIPI (left inferior lobe), Group 1, oral 10 mg/kg per day, seven days, individual cases): 1500 ng/g
- concentration at 7 days (New Zealand White, lung, left inferior lobe, po, 10 mg/kg/day, Lung concentration of aprepitant LIPI, Average ± SD of cases, Group 1, oral 10 mg/kg per day, seven days): 1300 ng/g
- concentration at 7 days (New Zealand White, lung, left inferior lobe, po, 40 mg/kg/day, Lung concentration of aprepitant LIPI (left inferior lobe), Group 2, oral 40 mg/kg per day, seven days, individual cases): 5400 ng/g
- concentration at 7 days (New Zealand White, lung, left inferior lobe, po, 40 mg/kg/day, Lung concentration of aprepitant LIPI, Average ± SD of cases, Group 2, oral 40 mg/kg per day, seven days): 4000 ng/g
- concentration at 7 days (New Zealand White, lung, left inferior lobe, po, 80 mg/kg/day, Lung concentration of aprepitant LIPI (left inferior lobe), Group 3, oral 80 mg/kg per day, seven days, individual cases): 3600 ng/g
- concentration at 7 days (New Zealand White, lung, left inferior lobe, po, 80 mg/kg/day, Lung concentration of aprepitant LIPI, Average ± SD of cases, Group 3, oral 80 mg/kg per day, seven days): 3700 ng/g
- concentration at 7 days (New Zealand White, lung, left superior lobe, inhaled, 0.2 mg/kg/day, Lung concentration of aprepitant LSPI, Average ± SD of cases, Group 7, inhalation (aerosol, olive oil) 0.2 mg/kg per day, seven days): 6030 ng/g
- concentration at 7 days (New Zealand White, lung, left superior lobe, inhaled, 0.4 mg/kg/day, Lung concentration of aprepitant LSPI (left superior lobe), Group 8, inhalation (aerosol, olive oil) 0.4 mg/kg per day, seven days, individual cases): 9900 ng/g
- concentration at 7 days (New Zealand White, lung, left superior lobe, inhaled, 0.4 mg/kg/day, Lung concentration of aprepitant LSPI, Average ± SD of cases, Group 8, inhalation (aerosol, olive oil) 0.4 mg/kg per day, seven days): 10000 ng/g
SMILES: C[C@@H](OC1OCCN(Cc2nc(=O)[nH][nH]2)C1c1ccc(F)cc1)c1cc(C(F)(F)F)cc(C(F)(F)F)c1 (stereo in doubt) [Aprepitant, 5-([(2R,3S)-2-((R)-1-[3,5-bis(trifluoromethyl)phenyl]ethoxy)-3-(4-fluorophenyl)morpholino]methyl)-1H-1,2,4-triazol-3(2H)-one]
